Assays:
[1] = tested on: Factor Xa; assay: anti-Factor Xa activity, chromogenic substrate assay; assay type: biochemical
[2] = tested on: Factor II a; assay: anti-Factor IIa activity, chromogenic substrate method; assay type: biochemical; conditions: data not shown
[3] = tested on: Factor Xa; assay: neutralization of anti-Factor Xa activity by protamine sulfate, chromogenic substrate method; assay type: biochemical; conditions: different concentrations of protamine sulfate
From the text: Therefore, the phenyl-linked heparin hexasaccharide dimer I-1-1 prepared by the present disclosure is a novel heparin analog whose anticoagulant activity may be neutralized by protamine sulfate.

[4] = tested on: Factor Xa; assay: anti-Factor Xa titer against low molecular weight heparin standard curve, chromogenic substrate method; assay type: biochemical
[5] = in vivo pharmacokinetics after subcutaneous injection in rats; conditions: rat
Procedure: Both Fondaparinux and the phenyl-linked heparin hexasaccharide dimer I-1-1 were injected subcutaneously into Wister male rats weighing 200±20 g (n≥3) at a dose of 300 IU/kg. Blood samples were collected from the jugular vein of rats at 0, 0.5, 0.75, 1, 1.25, 1.5, 1.75, 2, 2.5, 3, 4, 8, 12 and 24 hours respectively (based on the actual blood collection time). After the blood samples were centrifuged at 5000 r/min for 15 minutes, the supernatant was taken to determine the anti-Factor Xa activity by the above method, and the residual concentrations of Fondaparinux and the phenyl-linked heparin hexasaccharide dimer I-1-1 in rats were calculated. The drug concentration vs. time curve was drawn.

O=C(O)C1OC(OC2C(COS(=O)(=O)O)OC(OC3C(C(=O)O)OC(OC4C(COS(=O)(=O)O)OC(OC5C(C(=O)O)OC(Oc6ccc(OC7OC(C(=O)O)C(OC8OC(COS(=O)(=O)O)C(OC9OC(C(=O)O)C(OC%10OC(COS(=O)(=O)O)C(OC%11OC(C(=O)O)C(OC%12OC(COS(=O)(=O)O)C(O)C(O)C%12NS(=O)(=O)O)C(O)C%11O)C(OS(=O)(=O)O)C%10NS(=O)(=O)O)C(O)C9OS(=O)(=O)O)C(O)C8NS(=O)(=O)O)C(O)C7O)cc6)C(O)C5O)C(NS(=O)(=O)O)C4O)C(OS(=O)(=O)O)C3O)C(NS(=O)(=O)O)C2OS(=O)(=O)O)C(O)C(O)C1OC1OC(COS(=O)(=O)O)C(O)C(O)C1NS(=O)(=O)O (centres unmarked) [Compound I-1-1]
IC50 value of the anti-Factor Xa activity ([1]; mass concentration): 0.02815 µg/mL
IC50 ([1]; molar concentration): 7.2 nM
anti-Factor IIa activity [2]: no significant anti-Factor Ha activity
neutralization of in vitro anti-Factor Xa activity by protamine sulfate [3]: almost completely reversed
titer [4]: 1,121.5 IU/mg
t1/2 ([5]; male, Wister, in vivo, sc): 2.269 h
in vivo half-life (comparison in words) ([5]; in vivo): comparable to that of commercially available Fondaparinux

CO[C@H]1O[C@H](COS(=O)(=O)O)[C@@H](O[C@@H]2O[C@@H](C(=O)O)[C@@H](O[C@H]3O[C@H](COS(=O)(=O)O)[C@@H](O[C@@H]4O[C@H](C(=O)O)[C@@H](O[C@H]5O[C@H](COS(=O)(=O)O)[C@@H](O)[C@H](O)[C@H]5NS(=O)(=O)O)[C@H](O)[C@H]4O)[C@H](OS(=O)(=O)O)[C@H]3NS(=O)(=O)O)[C@H](O)[C@H]2OS(=O)(=O)O)[C@H](O)[C@H]1NS(=O)(=O)O [Fondaparinux, reference compound]
half-life ([5]; male, Wister, plasma, sc, 300 IU/kg): 2.17 h

— patent US20260176269A1, “ANTICOAGULANT HEPARIN OLIGOSACCHARIDE PHENYL-LINKED DIMER, PREPARATION METHOD THEREFOR AND USE THEREOF” (SHANDONG UNIVERSTIY, priority 2022, published 2026)
